Converted amounts (≈) assume the structure as drawn. Like-named read-outs stand apart in the source and are kept apart here. Marks after values point to notes of the source that are not given here. One block for each compound: values may come before it.
Assays:
[1] = test system: chloroquine-resistant K1 strain of P. falciparum; assay: in vitro screen against chloroquine-resistant K1 strain of P. falciparum; assay type: cell-based; details: Plasmodium falciparum
[2] = test system: P. berghei; assay: 1-day Peters test against P. berghei in vivo; details: for ED50 / ED90: Plasmodium berghei, 24 h; for ED90: read-out: P. berghei (1 day) ED90 po
[3] = test system: ANKA strain of P. Berghei; assay: single dose STI in vivo screen in infected Moro SPF mice; details: for antimalarial activity, overall assessment: overall judgement of in vitro and in vivo data of Table 2; for inhibition in vivo at 10 mg/kg: Plasmodium berghei, 72 h
Procedure: In the single dose STI in vivo screen, Moro SPF mice infected with the ANKA strain of P. Berghei (groups of three mice) were treated on day one post-infection with trioxolanes dissolved or suspended in 3% ethanol and 7% Tween 80. […] Antimalarial activity was measured by percent redution in parasitemia on day three post-infection and survival times compared to an untreated control group. Survival to day 30 post-infection is considered to be a cure.

[4] = test system: chloroquine-sensitive NF54 strain of P. falciparum; assay: in vitro screen against chloroquine-sensitive NF54 strain of P. falciparum; assay type: cell-based; details: Plasmodium falciparum
[5] = differential scanning calorimetry (DSC), thermal stability; assay type: physicochemical; details: thermal decomposition
[6] = test system: P. berghei; assay: 4-day Peters test against P. berghei in vivo; details: for ED50: Plasmodium berghei, 96 h
[7] = test system: 21-day-old schistosomules of Schistosoma mansoni; assay: effect on 21-day-old schistosomules in mice; assay type: in vivo; details: single 200 mg/kg per os
Procedure: […] Each group was treated per os with OZ compounds at a single dose of 200 mg/kg. Untreated mice served as the control. All groups were killed 4 weeks after treatment and the liver and intestine were removed and separated. The liver and intestine were compressed and alive male and female worms could be seen and counted. The effect of the compounds was evaluated by mean total and female worm burden.

[8] = in vitro, K1 strain, read-out: IC50 (ng/ml) K1
[9] = percent reduction in parasitemia day 3 post-infection, single 100 mg/kg po
[10] = percent reduction in parasitemia day 3 post-infection, single 100 mg/kg sc
[11] = single 100 mg/kg po, survival to day 30 = cure
[12] = single 100 mg/kg sc, survival to day 30 = cure
[13] = in vitro, NF54 strain, read-out: IC50 (ng/ml) NF54
[14] = NF54, read-out: IC50 (ng/ml) NF54
[15] = in vitro, K1 and NF54 strains not distinguished, read-out: IC50

Compound: C[C@@H]1CC[C@H]2[C@@H](C)C(=O)O[C@@H]3O[C@@]4(C)CC[C@@H]1[C@]32OO4 [Artemisinin, artemisinin, reference compound]
IC50 [1, 8]: 1.2 ng/mL (≈ 4.25 nM) | ED50 ([2]; 1 day, po, read-out: P. berghei (1 day) ED50 po): 9.1 mg/kg | ED90 ([2]; 1 day, po): 14 mg/kg | Activity (%) po ([3]; percent reduction in parasitemia day 3 post-infection, single 10 mg/kg po): 65% | Activity (%) sc ([3]; percent reduction in parasitemia day 3 post-infection, single 10 mg/kg sc): 87% | Activity (%) po [3, 9]: 98% | Activity (%) sc [3, 10]: 100% | Survival (days) po ([3]; single 10 mg/kg po): 6.5 days | Survival (days) sc ([3]; single 10 mg/kg sc): 7.0 days | Survival (days) po [3, 11]: 7.3 days | Survival (days) sc [3, 12]: 14 days | IC50 [4, 13]: 1.9 ng/mL (≈ 6.73 nM)

Compound: C1CCC2(CC1)OOC1(CCCCC1)O2 [OZ01, 7,14,15-Trioxadispiro[5.1.5.2]pentadecane]
IC50 ([1]; K1, read-out: IC50 (ng/ml) K1): > 100 ng/mL | antimalarial activity, overall assessment [3]: less active | Activity (%) po [3, 9]: 0/0% | Activity (%) sc [3, 10]: 0/0% | Survival (days) po [3, 11]: 5.3/5.3 days | Survival (days) sc [3, 12]: 5.3/5.3 days | IC50 [4, 14]: > 100 ng/mL

Compound: O=C1CCC2(CC1)OOC1(CCCCC1)O2 [OZ02, 3-Oxo-7,14,15-trioxadispiro[5.1.5.2]pentadecane]
IC50 [1, 8]: > 100 ng/mL | antimalarial activity, overall assessment [3]: less active | Activity (%) po [3, 9]: 0/0% | Activity (%) sc [3, 10]: 0/0% | Survival (days) po [3, 11]: 5.0/5.0 days | Survival (days) sc [3, 12]: 5.0/5.0 days | IC50 [4, 13]: 94 ng/mL (≈ 415 nM) | Tm dec. (° C.) [5]: 193.3 °C

Compound: FC1CCCCC12OOC1(CCCCC1)O2 (centres unmarked) [OZ06, 1-Fluoro-7,14,15-trioxadispiro[5.1.5.2]pentadecane]
IC50 ([1]; K1, read-out: IC50 (ng/ml) K1): 18 ng/mL (≈ 78.2 nM) | antimalarial activity, overall assessment [3]: less active | Survival (days) po [3, 11]: 1.0/1.0 days | Survival (days) sc [3, 12]: 1.0/1.0 days | IC50 [4, 14]: 22 ng/mL (≈ 95.5 nM)

Compound: C1CCC2(CC1)OOC1(CCC3(CC1)OOC1(CCCCC1)O3)O2 (centres unmarked) [OZ09, 7,12,19,20,23,24-Hexaoxatetraspiro[5.1.2.1.5.2.2.2]tetracosane]
IC50 ([1]; K1, read-out: IC50 (ng/ml) K1): 32 ng/mL (≈ 94 nM) | antimalarial activity, overall assessment [3]: less active | IC50 [4, 14]: 39 ng/mL (≈ 115 nM) | Tm dec. (° C.) [5]: 196.5 °C

Compound: C1COC2(CCC3(CC2)OOC2(O3)C3CC4CC(C3)CC2C4)O1 (centres unmarked) [OZ10, Adamantane-2-spiro-3′-1′,2′,4′,9′,12′-pentaoxadispiro[4.2.4.2]tetradecane]
IC50 ([1]; K1, read-out: IC50 (ng/ml) K1): 0.4 ng/mL (≈ 1.24 nM) | P. berghei (1 day) ED90 sc ([2]; 1 day, sc): 2.2 mg/kg | ED50 ([2]; po, read-out: P. berghei (1 day) ED50 po): 2.3 mg/kg | ED90 ([2]; po): 6.3 mg/kg | ED50 ([2]; sc, read-out: P. berghei (1 day) ED50 sc): 0.06 mg/kg | P. berghei (4 day) ED90 po ([6]; 4 day, po): 3.0 mg/kg | P. berghei (4 day) ED90 sc ([6]; 4 day, sc): 0.9 mg/kg | ED50 ([6]; po, read-out: P. berghei (4 day) ED50 po): 1.3 mg/kg | ED50 ([6]; sc, read-out: P. berghei (4 day) ED50 sc): 0.5 mg/kg | inhibition in vivo at 10 mg/kg ([3]; po, read-out: Activity (%) po): 99.6% | inhibition in vivo at 10 mg/kg ([3]; sc, read-out: Activity (%) sc): 100% | IC50 [4, 14]: 0.67 ng/mL (≈ 2.08 nM) | Tm dec. (° C.) [5]: 159.4 °C

Compound: C1CC2(CCO1)OOC1(O2)C2CC3CC(C2)CC1C3 (centres unmarked) [OZ22, Adamantane-2-spiro-3′-1′,2′,4′,8′-tetraoxaspiro[4.5]decane]
IC50 ([1]; K1, read-out: IC50 (ng/ml) K1): 0.32 ng/mL (≈ 1.2 nM) | FWR (%) ([7]; female worm reduction rate): 76% | Mean female worm burden ([7]; mean ± standard deviation): 3.0 ± 1.9^b | TWR (%) ([7]; total worm reduction rate): 75% | inhibition in vivo at 10 mg/kg ([3]; po, read-out: Activity (%) po): 35% | inhibition in vivo at 10 mg/kg ([3]; sc, read-out: Activity (%) sc): 99.6% | IC50 [4, 14]: 0.56 ng/mL (≈ 2.1 nM)

Compound: O=C(NN=C1CCC2(CC1)OOC1(O2)C2CC3CC(C2)CC1C3)Nc1ccccc1 (centres unmarked) [OZ30, Adamantane-2-spiro-3′-1′,2′,4′-trioxaspiro[4.5]decan-8′-one 4-phenylsemicarbazone]
IC50 ([1]; K1, read-out: IC50 (ng/ml) K1): 0.65 ng/mL (≈ 1.58 nM) | IC50 [1, 15]: < 5 ng/mL | P. berghei (4 day) ED90 po ([6]; 4 day, po): <10/>10 mg/kg | ED50 ([6]; 4 day, po, read-out: P. berghei (4 day) ED50 po): < 10 mg/kg | IC50 [4, 14]: 1.3 ng/mL (≈ 3.16 nM) | Tm dec. (° C.) [5]: 174.8 °C

IC50 [1, 8]: 1.4 ng/mL (≈ 3.14 nM) | IC50 [1, 15]: < 2 ng/mL | IC50 [4, 13]: 1.8 ng/mL (≈ 4.03 nM) | Tm dec. (° C.) [5]: 146.9 °C
Compound: Cc1ccc(S(=O)(=O)NN=C2CCC3(CC2)OOC2(O3)C3CC4CC(C3)CC2C4)cc1 (centres unmarked) [OZ39, Adamantane-2-spiro-3′-1′,2′,4′-trioxaspiro[4.5]decan-8′-one tosylhydrazone]
inhibition in vivo at 10 mg/kg ([3]; percent reduction in parasitemia day 3 post-infection, single 10 mg/kg po, read-out: Activity (%) po): 61% | inhibition in vivo at 10 mg/kg ([3]; percent reduction in parasitemia day 3 post-infection, single 10 mg/kg sc, read-out: Activity (%) sc): 99.3%

Compound: O=S1(=O)CCC2(CC1)OOC1(O2)C2CC3CC(C2)CC1C3 (centres unmarked) [OZ50, Adamantane-2-spiro-3′-1′,2′,4′-trioxa-8′-thiaspiro[4.5]decane 8′,8′-dioxide]
IC50 [1, 8]: 1.1 ng/mL (≈ 3.5 nM) | IC50 [4, 13]: 1.2 ng/mL (≈ 3.82 nM) | Tm dec. (° C.) [5]: 147.1 °C

Reference: patent US6486199B1, “Spiro and dispiro 1,2,4-trioxolane antimalarials” (Medicines for Malaria Venture MMV International Centre …, priority 2001, dated 2002)
